Experimental data from patent US20190343908A1, “Therapeutic Combination for the Treatment of Cancer” (Nerium Biotechnology Inc., priority 2011, published 2019).

Columns and labels:
[1] = test system: HT55 (colorectal cancer); assay: Sulforhodamine B viability assay, HT55; format: cell-based, human; set-up: key: absorbance (optical density) at 570 nm, second wavelength subtracted
Text: Three different viability assays were chosen to complement each other and yielded results dependent on concentration and cell line: the Methyl Tetrazolium dye assay, the Sulforhodamine B fluorescent dye assay, and the Crystal Violet dye assay.
(§1) The Sulforhodamine B and Crystal Violet assays provide information about protein and were used to complement the Methyl-Tetrazolium dye assay. […] It is used for the quantification of cellular proteins of cultured cells. The assay using Crystal Violet, a dye that binds electrostatically to proteins and stains DNA, provides a reliable, simple assay for measuring viability of cells.
(§2) The Methyl Tetrazolium, Sulforhodamine B, and Crystal Violet assays were used to assess cell viabilities. The incubation times were 24 hours, 48 hours, and 72 hours. The Nerium oleander extract Anvirzel™ (a hot water extract of oleander obtained from Salud Integral, Honduras) was tested in concentrations ranging from 0.01 ng/mL to 10 ng/mL.
(§3) Cells were detached by trypsinization (Trypsin-0.25% EDTA, Invitrogen, 25200-072) during the logarithmic phase of culture growth and plated in 96-well plates (18.000 cells/well) (Corning, Costar 359) in a final volume of 200 μl of medium per well. […] The absorbance was measured after 24 hours, 48 hours, and 72 hours of incubation.
For the Sulforhodamine B assay, 96-well plates were fixed by 10% trichloroacetic acid (Fluka, 91228) and were incubated at 4° C. for 1 hour. Afterwards, plates were rinsed with water and cells were stained with 0.4% Sulforhodamine B (Sigma, 341738), dissolved in 1% acetic acid (Carlo Ebra, 401422) for 15 minutes at room temperature (RT). The unbound stain was washed twice with 1% acetic acid. Finally, 10 mM Tris Buffer pH 10.5 (Sigma, T6791) was added to dissolve the dye.
(§4) The optical density of each plate was measured on a μQuant spectrophotometer and the data were analyzed with Gen5 software (μQuant Biomolecular Spectrophotometer MQX200 and Gen5™ Microplate Data Collection & Analysis software, BioTek® Instruments. Inc, April 2008). Absorbance was measured at 570 nm for all assays and a second wavelength was measured in order to subtract noise. For the Methyl-Tetrazolium assay this second wavelength was 630 nm and for the Sulforhodamine B and Crystal Violet assays it was 690 nm.

[2] = test system: 22Rv1 (human prostate cancer); assay: Crystal Violet (CVE) viability assay, 22Rv1; format: cell-based; conditions: for Average absorbance, CVE 24 h / Average absorbance, CVE 48 h / Average absorbance, CVE 72 h: 22Rv1 Run 3
Text: as §1, §2, §3
For the Crystal Violet assay, the medium was removed from the 96-well plates, the plates rinsed with PBS (Sigma, P3813) and then the cells were […] by the addition of 10% formalin (MERCK, 1.04003.2500) for 20 minutes at RT. Formalin was removed and 0.25% aqueous crystal violet (Sigma, HT901), dissolved in water, was added for 10 minutes at RT. Unbound Crystal Violet was rinsed by washing with water and finally 33% acetic acid was added to dissolve the dye.
as §4

N.N.[Cl][Pt][Cl] [cisplatin]
SRB Average ([1]; HT55 Run 2, 48 h, 1 μg/ml CDDP): 2.098 | SRB Average ([1]; HT55 Run 2, 48 h, 10 μg/ml CDDP): 1.814 | SRB Average ([1]; HT55 Run 2, 48 h, 100 μg/ml CDDP): 1.508 | SRB Average ([1]; HT55 Run 2, 72 h, 0.1 μg/ml CDDP): 2.564 | SRB Average ([1]; HT55 Run 2, 72 h, 1 μg/ml CDDP): 1.804 | SRB Average ([1]; HT55 Run 2, 72 h, 10 μg/ml CDDP): 1.74 | SRB Average ([1]; HT55 Run 2, 72 h, 100 μg/ml CDDP): 2.019 | SRB Average ([1]; HT55 Run 3, 24 h, 0.1 μg/ml CDDP): 2.101 | SRB Average ([1]; HT55 Run 3, 24 h, 1 μg/ml CDDP): 1.801 | SRB Average ([1]; HT55 Run 3, 24 h, 10 μg/ml CDDP): 2.557 | SRB Average ([1]; HT55 Run 3, 24 h, 100 μg/ml CDDP): 2.038 | SRB Average ([1]; HT55 Run 3, 48 h, 0.1 μg/ml CDDP): 2.648 | SRB Average ([1]; HT55 Run 3, 48 h, 1 μg/ml CDDP): 2.071 | SRB Average ([1]; HT55 Run 3, 48 h, 10 μg/ml CDDP): 2.649 | SRB Average ([1]; HT55 Run 3, 48 h, 100 μg/ml CDDP): 1.727 | SRB Average ([1]; HT55 Run 3, 72 h, 0.1 μg/ml CDDP): 2.177 | SRB Average ([1]; HT55 Run 3, 72 h, 1 μg/ml CDDP): 1.424 | SRB Average ([1]; HT55 Run 3, 72 h, 10 μg/ml CDDP): 2.784 | SRB Average ([1]; HT55 Run 3, 72 h, 100 μg/ml CDDP): 1.831 | CVE 24 h Average ([2]; 22Rv1 Run 1, 0.1 μg/ml CDDP): 0.27 | CVE 48 h Average ([2]; 22Rv1 Run 1, 0.1 μg/ml CDDP): 0.501 | CVE 72 h Average ([2]; 22Rv1 Run 1, 0.1 μg/ml CDDP): 0.803 | CVE 24 h Average ([2]; 22Rv1 Run 1, 1 μg/ml CDDP): 0.152 | CVE 48 h Average ([2]; 22Rv1 Run 1, 1 μg/ml CDDP): 0.437 | CVE 72 h Average ([2]; 22Rv1 Run 1, 1 μg/ml CDDP): 0.606 | CVE 48 h Average ([2]; 22Rv1 Run 1, 10 μg/ml CDDP): 0.351 | CVE 72 h Average ([2]; 22Rv1 Run 1, 10 μg/ml CDDP): 0.439 | CVE 24 h Average ([2]; 22Rv1 Run 1, 100 μg/ml CDDP): 0.124 | CVE 48 h Average ([2]; 22Rv1 Run 1, 100 μg/ml CDDP): 0.273 | CVE 72 h Average ([2]; 22Rv1 Run 1, 100 μg/ml CDDP): 0.233 | CVE 24 h Average ([2]; 22Rv1 Run 2, 0.1 μg/ml CDDP): 0.541 | CVE 48 h Average ([2]; 22Rv1 Run 2, 0.1 μg/ml CDDP): 0.776 | CVE 72 h Average ([2]; 22Rv1 Run 2, 0.1 μg/ml CDDP): 0.784 | CVE 24 h Average ([2]; 22Rv1 Run 2, 1 μg/ml CDDP): 0.305 | CVE 48 h Average ([2]; 22Rv1 Run 2, 1 μg/ml CDDP): 0.517 | CVE 72 h Average ([2]; 22Rv1 Run 2, 1 μg/ml CDDP): 0.286 | CVE 24 h Average ([2]; 22Rv1 Run 2, 10 μg/ml CDDP): 0.376 | CVE 48 h Average ([2]; 22Rv1 Run 2, 10 μg/ml CDDP): 0.434 | CVE 72 h Average ([2]; 22Rv1 Run 2, 10 μg/ml CDDP): 0.206 | CVE 24 h Average ([2]; 22Rv1 Run 2, 100 μg/ml CDDP): 0.228 | CVE 48 h Average ([2]; 22Rv1 Run 2, 100 μg/ml CDDP): 0.228 | CVE 72 h Average ([2]; 22Rv1 Run 2, 100 μg/ml CDDP): 0.256 | Average absorbance, CVE 24 h ([2]; 0.1 μg/ml CDDP): 0.85 | Average absorbance, CVE 48 h ([2]; 0.1 μg/ml CDDP): 0.644 | Average absorbance, CVE 72 h ([2]; 0.1 μg/ml CDDP): 0.45 | Average absorbance, CVE 24 h ([2]; 1 μg/ml CDDP): 0.434 | Average absorbance, CVE 48 h ([2]; 1 μg/ml CDDP): 0.404 | Average absorbance, CVE 72 h ([2]; 1 μg/ml CDDP): 0.284 | Average absorbance, CVE 24 h ([2]; 10 μg/ml CDDP): 0.295 | Average absorbance, CVE 48 h ([2]; 10 μg/ml CDDP): 0.289 | Average absorbance, CVE 72 h ([2]; 10 μg/ml CDDP): 0.283 | Average absorbance, CVE 24 h ([2]; 100 μg/ml CDDP): 0.215 | Average absorbance, CVE 48 h ([2]; 100 μg/ml CDDP): 0.212 | Average absorbance, CVE 72 h ([2]; 100 μg/ml CDDP): 0.234
